Results: the OligoGym collection
Bases are written 5' to 3'; sugars and linkages follow in the same order, as letters with counts (s phosphorothioate, o phosphodiester; PS: all linkages phosphorothioate). C may stand for cytosine or 5-methylcytosine; the collection does not tell. l = locked nucleic acid (LNA); d = 2'-deoxy (DNA)

Target: HIF1A
Assay: HeLa, 100 nM transfected, 24 h, mean of 3
Details: ASO

With GGCAAGCATCCTG (sugars l1 d9 l3, PS) the caspase activation (% of PBS control) was 468.
GGCAAGCATCCTG (sugars l1 d10 l2, PS) showed a caspase activation (% of PBS control) of 394.
With GGCAAGCATCCTG (sugars l1 d11 l1, PS) the caspase activation (% of PBS control) was 316.
Work on “GGCAAGCATCCTG (sugars l2 d1 l1 d6 l3, PS)” yielded a caspase activation (% of PBS control) of 502.
“GGCAAGCATCCTG (sugars l2 d1 l1 d7 l2, PS)” gave a caspase activation (% of PBS control) of 560.
“GGCAAGCATCCTG (sugars l2 d1 l1 d8 l1, PS)” gave a caspase activation (% of PBS control) of 359.
With “GGCAAGCATCCTG (sugars l2 d8 l1 d1 l1, PS)” the caspase activation (% of PBS control) was 327.
GGCAAGCATCCTG (sugars l2 d8 l3, PS) gave a caspase activation (% of PBS control) of 657.
Sequence GGCAAGCATCCTG (sugars l2 d9 l2, PS) has a caspase activation (% of PBS control) of 554.
GGCAAGCATCCTG (sugars l2 d10 l1, PS) gave a caspase activation (% of PBS control) of 291.
Sequence “GGCAAGCATCCTG (sugars l3 d7 l1 d1 l1, PS)” has a caspase activation (% of PBS control) of 632.
Sequence GGCAAGCATCCTG (sugars l3 d7 l3, PS) has a caspase activation (% of PBS control) of 632.
With GGCAAGCATCCTG (sugars l3 d8 l2, PS) the caspase activation (% of PBS control) was 642.
GGCAAGCATCCTG (sugars l3 d9 l1, PS) showed a caspase activation (% of PBS control) of 496.
“GGCAAGCATCCTG (sugars l4 d6 l1 d1 l1, PS)” showed a caspase activation (% of PBS control) of 607.
Work on GGCAAGCATCCTG (sugars l4 d6 l3, PS) yielded a caspase activation (% of PBS control) of 618.
Work on GGCAAGCATCCTG (sugars l4 d7 l2, PS) yielded a caspase activation (% of PBS control) of 528.
GGCAAGCATCCTG (sugars l4 d8 l1, PS) gave a caspase activation (% of PBS control) of 604.
Sequence “GGCAAGCATCCTG (sugars lddlddddddldl, PS)” has a caspase activation (% of PBS control) of 198.
“GGCAAGCATCCTG (sugars ldldddddddldl, PS)” gave a caspase activation (% of PBS control) of 344.
For “GGCAAGCATCCTG (sugars ldllddddddldl, PS)”, the caspase activation (% of PBS control) was 370.
With “GGCAAGCATCCTG (sugars lldlddddddldl, PS)” the caspase activation (% of PBS control) was 334.
“GTTACTGCCTTCT (sugars l1 d1 l1 d7 l3, PS)” gave a caspase activation (% of PBS control) of 170.
“GTTACTGCCTTCT (sugars l1 d1 l1 d8 l2, PS)” was tested, and the caspase activation (% of PBS control) was 123.
Work on “GTTACTGCCTTCT (sugars l1 d1 l1 d9 l1, PS)” yielded a caspase activation (% of PBS control) of 117.
“GTTACTGCCTTCT (sugars l1 d1 l2 d6 l3, PS)” gave a caspase activation (% of PBS control) of 239.
Sequence “GTTACTGCCTTCT (sugars l1 d1 l2 d7 l2, PS)” has a caspase activation (% of PBS control) of 154.
“GTTACTGCCTTCT (sugars l1 d1 l2 d8 l1, PS)” showed a caspase activation (% of PBS control) of 136.
“GTTACTGCCTTCT (sugars l1 d2 l1 d6 l3, PS)” was tested, and the caspase activation (% of PBS control) was 134.
“GTTACTGCCTTCT (sugars l1 d2 l1 d7 l2, PS)” showed a caspase activation (% of PBS control) of 136.
In the case of “GTTACTGCCTTCT (sugars l1 d2 l1 d8 l1, PS)”, the caspase activation (% of PBS control) is reported as 110.
For “GTTACTGCCTTCT (sugars l1 d9 l1 d1 l1, PS)”, the caspase activation (% of PBS control) was 104.
GTTACTGCCTTCT (sugars l1 d9 l3, PS) showed a caspase activation (% of PBS control) of 171.
In the case of GTTACTGCCTTCT (sugars l1 d10 l2, PS), the caspase activation (% of PBS control) is reported as 127.
For GTTACTGCCTTCT (sugars l1 d11 l1, PS), the caspase activation (% of PBS control) was 112.
With “GTTACTGCCTTCT (sugars l2 d1 l1 d6 l3, PS)” the caspase activation (% of PBS control) was 183.
For “GTTACTGCCTTCT (sugars l2 d1 l1 d7 l2, PS)”, the caspase activation (% of PBS control) was 134.
“GTTACTGCCTTCT (sugars l2 d1 l1 d8 l1, PS)” showed a caspase activation (% of PBS control) of 133.
“GTTACTGCCTTCT (sugars l2 d8 l1 d1 l1, PS)” showed a caspase activation (% of PBS control) of 98.3.
In the case of GTTACTGCCTTCT (sugars l2 d8 l3, PS), the caspase activation (% of PBS control) is reported as 168.
For GTTACTGCCTTCT (sugars l2 d9 l2, PS), the caspase activation (% of PBS control) was 114.
GTTACTGCCTTCT (sugars l2 d10 l1, PS) was tested, and the caspase activation (% of PBS control) was 109.
For “GTTACTGCCTTCT (sugars l3 d7 l1 d1 l1, PS)”, the caspase activation (% of PBS control) was 161.
For GTTACTGCCTTCT (sugars l3 d7 l3, PS), the caspase activation (% of PBS control) was 267.
GTTACTGCCTTCT (sugars l3 d8 l2, PS) was tested, and the caspase activation (% of PBS control) was 164.
Work on GTTACTGCCTTCT (sugars l3 d9 l1, PS) yielded a caspase activation (% of PBS control) of 138.
With “GTTACTGCCTTCT (sugars l4 d6 l1 d1 l1, PS)” the caspase activation (% of PBS control) was 221.
With GTTACTGCCTTCT (sugars l4 d6 l3, PS) the caspase activation (% of PBS control) was 356.
Sequence GTTACTGCCTTCT (sugars l4 d7 l2, PS) has a caspase activation (% of PBS control) of 196.
Work on GTTACTGCCTTCT (sugars l4 d8 l1, PS) yielded a caspase activation (% of PBS control) of 142.
Work on “GTTACTGCCTTCT (sugars lddlddddddldl, PS)” yielded a caspase activation (% of PBS control) of 110.
